Source: patent publication US20230277553A1, “THERAPEUTIC COMPOSITION OF CURE-PRO COMPOUNDS FOR TARGETED DEGRADATION OF BET DOMAIN PROTEINS, AND METHODS OF MAKING AND USAGE” (CORNELL UNIVERSITY, priority 2020, published 2023)
Entries after “also recorded” stand apart in the source; their conditions may differ.

Key:
BRD4 [1] = molecular target: T1, BRD4 (Homo sapiens, UniProt O60885); test: CURE-PRO-mediated BRD4 degradation, Western blot, HeLa cells; type: cell-based; parameters: endogenous in cells; host or cells: HeLa; conditions: 24 h, Western blot; for BRD4 degradation, co-treatment with CRBN ligand 8048: 1:1 with 8048, 1-10 μM each; for BRD4 degradation, co-treatment with CRBN ligand 8049: 1:1 with 8049, 1-10 μM each; for BRD4 degradation, BRD ligand alone: BRD monomer alone
Experimental: All cell lines were purchased from ATCC or DSMZ and grown at 37° C. with 5% CO2. Human HeLa cells were cultured in complete growth medium (Dulbecco's modified Eagle's medium (DMEM) supplemented with 10% FBS); MCF7 cells were cultured in complete growth medium (Dulbecco's modified Eagle's medium (DMEM) supplemented with 10% FBS and 0.01 mg/ml human recombinant insulin (Sigma Aldrich); Namalwa and MOLM-13 cells were cultured in complete growth medium (RPMI 1640 medium supplemented with 10% FBS); MV-4-11 were cultured in complete growth medium (Iscove's Modified Dulbecco's medium, supplemented with 10% FBS); HCT116 cells were cultured in complete growth medium (McCoy's 5a Medium supplemented with 10% FBS). For cellular degradation of BRD4 studies, cells were seeded in a 12-well plate at 70-80% confluency, allowed to attach overnight, and incubated with the indicated compounds for the indicated time. When indicated, a 15-minute pretreatment with 10 μM pomalidomide, 10 μM VHL298, 10 μM Nutlin3a, 1 μM MG-132 or 1 μM Carfilzomib was performed before the addition of CURE-PROs. For washout studies, after CURE-PRO treatment, media was aspirated and incubated with complete medium for the indicated time before lysis.
Anti-BRD4 (13440, 1:1,000 dilution for Western Blot and 1:25 dilution for ProteinSimple); Anti-BRD2 (5848 1:1,000 dilution for Western Blot and 1:25 dilution for ProteinSimple); β-Actin (3700, 1:2,000 dilution for Western Blot), β-Actin (4970, 1:50 dilution for ProteinSimple) anti-mouse IgG-HRP, and anti-rabbit IgG-HRP antibodies were purchased Cell Signaling Technology. Anti-GAPDH (600-401-A33, 1:100 dilution for ProteinSimple) was purchased from Rockland Immunochemicals, Inc. Anti-BRD3 (sc-81202, 1:200 dilution for Western Blot) was purchased from Santa Cruz Biotechnology.
HeLa, MCF7, or HCT116 cells (2.5-3×10^6) were treated for 24 hours with the indicated compounds solubilized in DMSO. The cells were washed in ice-cold PBS and were then lysed in RIPA lysis buffer (150 mM NaCl, 5 mM EDTA, 1% NP-40, 0.5% sodium deoxycholate, 0.1% SDS, 50 mM Tris, pH 8.0.) with Roche protease inhibitor complete cocktail and phosphatase inhibitors (10 mM sodium fluoride, 10 mM sodium pyrophosphate, 1 mM sodium orthovanadate and 20 mM β-glycerophosphate). The total protein concentrations were determined by Bradford Protein Assay and 10-20 μg of protein was loaded onto 4-15% Tris-Glycine gradient gels (Biorad). After standard gel electrophoresis, the separated proteins were transferred to PVDF membrane by wet transfer. The immunoblots were then blocked for 1 hour in 5% skim milk in TBST or 5% BSA in TBST, according to manufacturer's instructions, before an overnight incubation at 4° C. with indicated antibodies and membranes. Membranes were then incubated with the appropriate horseradish peroxidase-conjugated secondary antibodies (1:5,000 dilution) for 1 h at room temperature and the bands were visualized using the Clarity Max Western ECL Substrate (Biorad) and the ChemiDoc Imaging System (Biorad). Signal was detected with ECL Western Blotting Substrate (Pierce) and X-ray film processed with a Konica SRX-101 X-ray film processor or captured by Bio-Rad's Chemidoc Imaging system.
HeLa cells (2.5×106) were treated for 24 hours with the sample compounds solubilized in DMSO. Compounds were added at 1-10 μM each. Standardized protein samples were electrophoresed and imaged as described in the immunoblotting description above. FIGS. 6-18 depicts the CURE-PRO-mediated BRD4 degradation for BRD monomers (JQ1 derivatives comprising of catechol linkers), and CRBN ligands, 8048 and 8049 (pomalidomide derivatives comprising boronic acid linkers) combined in a 1:1 ratio.
HeLa cells (2.5×106) were treated for 24 hours with the compounds solubilized in DMSO. The compounds were added at 10 μM each. Standardized protein samples were electrophoresed and imaged as described in the immunoblotting section above. […]

BRD4 [2] = molecular target: T1, BRD4; test: Summary of BRD4 degradation by CURE-PRO pairs, estimated from Western Blot or WES (Proteinsimple); type: cell-based; parameters: endogenous in cells; conditions: for Degradation of BRD4 in combination with CRBN ligand [drawing 407]: first drawing (by text: 8048)
Description: A black check mark indicates efficacy of 30% to 70% or higher protein degradation.

[3] = Table 4, aryl-boronic acid-containing CRBN ligand

| SMILES | BRD4 degradation, co-treatment with CRBN ligand 8048 (BRD4 [1]) | BRD4 degradation, co-treatment with CRBN ligand 8049 (BRD4 [1]) | BRD4 degradation, BRD ligand alone (BRD4 [1]) | Degradation of BRD4 in combination with CRBN ligand [drawing 407] (BRD4 [2]; [3]) | also measured |
| --- | --- | --- | --- | --- | --- |
| COc1ccc2c(c1)C(c1ccc(Cl)cc1)=N[C@@H](CC(=O)NCCOCCOCCNC(=O)c1ccc(B(O)O)cc1)c1nnc(C)n1-2 [BRD-E45] |  |  |  |  | BRD4 degradation, co-treatment with CRBN ligand 8066 (BRD4 [1]; 1:1 with 8066, 10 μM each (BRD-E10: 10 and 100 μM)): causes degradation of BRD4; Degradation of BRD4 in combination with CRBN ligand [drawing 372] (BRD4 [2]; Table 1, CRBN ligand, third drawing (8066)): ✓ (A black check mark indicates efficacy of 30% to 70% or higher protein degradation); Degradation of BRD4 in combination with VHL ligand [drawing 397] (BRD4 [2]; Table 3, aromatic 1,2-diol-containing VHL ligand, second drawing (8305)): ✓ (A black check mark indicates efficacy of 30% to 70% or higher protein degradation) |
| COc1ccc2c(c1)C(c1ccc(Cl)cc1)=N[C@@H](CC(=O)Nc1ccc(B(O)O)cc1)c1nnc(C)n1-2 [BRD-E74, (4-(2-((4S)-6-(4-chlorophenyl)-8-methoxy-1-methyl-4H-benzo[f][1,2,4]triazolo[4,3-a][1,4]diazepin-4-yl)acetamido)phenyl)boronic acid] |  |  |  |  | BRD4 degradation, co-treatment with CRBN ligand 8046 (BRD4 [1]; 1:1 with 8046, 10 μM each): causes degradation of BRD4; BRD4 degradation, co-treatment with CRBN ligand 8047 (BRD4 [1]; 1:1 with 8047, 10 μM each): causes degradation of BRD4; Degradation of BRD4 in combination with CRBN ligand [drawing 370] (BRD4 [2]; Table 1, aromatic 1,2-diol- or hindered cis-1,2-diol-containing CRBN ligand, first drawing (8046)): ✓ (A black check mark indicates efficacy of 30% to 70% or higher protein degradation) |
| COc1ccc2c(c1)C(c1ccc(Cl)cc1)=N[C@@H](CC(=O)NCCNC(=O)c1ccc(O)c(O)c1)c1nnc(C)n1-2 [BRD-N1] | causes degradation of BRD4; also recorded: Degradation is noted | no evidence of BRD4 degradation | no degradation of BRD4 | ✓ (A black check mark indicates efficacy of 30% to 70% or higher protein degradation) |  |
| COc1ccc2c(c1)C(c1ccc(Cl)cc1)=N[C@@H](CC(=O)NCCCCNC(=O)c1ccc(O)c(O)c1)c1nnc(C)n1-2 [BRD-N5] | causes degradation of BRD4; also recorded: Degradation is noted | no evidence of BRD4 degradation | no degradation of BRD4 | ✓ (A black check mark indicates efficacy of 30% to 70% or higher protein degradation) |  |
| COc1ccc2c(c1)C(c1ccc(Cl)cc1)=N[C@@H](CC(=O)NCCCCNC(=O)c1cccc(O)c1O)c1nnc(C)n1-2 [BRD-N6] | causes degradation of BRD4; also recorded: Degradation is noted | no evidence of BRD4 degradation | no degradation of BRD4 | ✓ (A black check mark indicates efficacy of 30% to 70% or higher protein degradation) |  |
| CCNC(=O)C[C@@H]1N=C(c2ccc(Cl)cc2)c2cc(OCCCCC(=O)Nc3ccc(O)c(O)c3)ccc2-n2c(C)nnc21 [BRD-N22, 5-(((4S)-6-(4-chlorophenyl)-4-(2-(ethylamino)-2-oxoethyl)-1-methyl-4H-benzo[f][1,2,4]triazolo[4,3-a][1,4]diazepin-8-yl)oxy)-N-(3,4-dihydroxyphenyl)pentanamide] | causes degradation of BRD4; also recorded: Degradation is noted | no evidence of BRD4 degradation | no degradation of BRD4 | ✓ (A black check mark indicates efficacy of 30% to 70% or higher protein degradation) |  |
| COc1ccc2c(c1)C(c1ccc(Cl)cc1)=N[C@@H](CC(=O)NCCNC(=O)Cc1ccc(O)c(O)c1)c1nnc(C)n1-2 [BRD-N30] | causes degradation of BRD4 |  | no degradation of BRD4 | ✓ (A black check mark indicates efficacy of 30% to 70% or higher protein degradation) |  |
| CCNC(=O)C[C@@H]1N=C(c2ccc(Cl)cc2)c2cc(OCCOCCNC(=O)c3ccc(O)c(O)c3)ccc2-n2c(C)nnc21 [BRD-N38, N-(2-(2-(((4S)-6-(4-chlorophenyl)-4-(2-(ethylamino)-2-oxoethyl)-1-methyl-4H-benzo[f][1,2,4]triazolo[4,3-a][1,4]diazepin-8-yl)oxy)ethoxy)ethyl)-3,4-dihydroxybenzamide] | causes degradation of BRD4 |  | no degradation of BRD4 | ✓ (A black check mark indicates efficacy of 30% to 70% or higher protein degradation) |  |
| COc1ccc2c(c1)C(c1ccc(Cl)cc1)=N[C@@H](CC(=O)NCCOCCOCCOCCNC(=O)c1ccc(O)c(O)c1)c1nnc(C)n1-2 [BRD-N44] | causes degradation of BRD4 |  | no degradation of BRD4 | ✓ (A black check mark indicates efficacy of 30% to 70% or higher protein degradation) |  |
| CCNC(=O)C[C@@H]1N=C(c2ccc(Cl)cc2)c2cc(-c3ccc4cc(O)c(O)cc4c3)ccc2-n2c(C)nnc21 [BRD-N67] | causes degradation of BRD4 | causes degradation of BRD4 | no degradation of BRD4 | ✓ (A black check mark indicates efficacy of 30% to 70% or higher protein degradation) | Degradation of BRD4 in combination with CRBN ligand [drawing 408] (BRD4 [2]; Table 4, aryl-boronic acid-containing CRBN ligand, second drawing (by text: 8049)): ✓ (A black check mark indicates efficacy of 30% to 70% or higher protein degradation) |
| COc1ccc2c(c1)C(c1ccc(Cl)cc1)=N[C@@H](CC(=O)NCCOCCOCCOCCOCCNC(=O)c1ccc(O)c(O)c1)c1nnc(C)n1-2 [BRD-N69] | causes degradation of BRD4; also recorded: Degradation is noted | no evidence of BRD4 degradation | no degradation of BRD4 | ✓ (A black check mark indicates efficacy of 30% to 70% or higher protein degradation) |  |
| CCNC(=O)C[C@@H]1N=C(c2ccc(Cl)cc2)c2cc(OCCOCCOCCOCCOCCOCCNC(=O)c3ccc(O)c(O)c3)ccc2-n2c(C)nnc21 [BRD-N70, N-(17-(((4S)-6-(4-chlorophenyl)-4-(2-(ethylamino)-2-oxoethyl)-1-methyl-4H-benzo[f][1,2,4]triazolo[4,3-a][1,4]diazepin-8-yl)oxy)-3,6,9,12,15-pentaoxaheptadecyl)-3,4-dihydroxybenzamide] | causes degradation of BRD4; also recorded: Degradation is noted | no evidence of BRD4 degradation |  | ✓ (A black check mark indicates efficacy of 30% to 70% or higher protein degradation) |  |
